# PMC10418366, “Fighting Celiac Disease: Improvement of pH Stability of Cathepsin L In Vitro by Computational Design” (International Journal of Molecular Sciences, 2023)
# Molecular target: T1, rTcCathL1 (Tribolium castaneum cathepsin L) (Tribolium castaneum, UniProt D6X519)
# T1 construct: gene AUGUSTUS-3.0.2_01950; mature enzyme after autocatalytic processing (pH 4.0, 37 °C) of recombinant proenzyme secreted by Pichia pastoris GS115 (pPICZalphaA); signal peptide and propeptide total 115 residues (stated for the model)
# T1 sequence (D6X519 116-328): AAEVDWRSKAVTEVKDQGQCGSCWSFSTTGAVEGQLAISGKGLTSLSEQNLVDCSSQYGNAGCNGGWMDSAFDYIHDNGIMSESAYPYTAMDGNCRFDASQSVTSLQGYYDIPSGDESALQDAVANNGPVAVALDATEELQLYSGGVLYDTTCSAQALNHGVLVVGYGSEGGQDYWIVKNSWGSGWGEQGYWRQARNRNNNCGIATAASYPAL
# Assay: active-site titration with irreversible inhibitor
# Type: biochemical
# Conditions: covalent, 37 °C assay with Glp-Phe-Gln-pNA, 6 mM cysteine, 1 mM EDTA
smiles,measurement,value
CC(C)C[C@H](NC(=O)[C@H]1O[C@@H]1C(=O)O)C(=O)NCCCCN=C(N)N [E-64],active-site titration with irreversible inhibitor,titration of peptidase active sites with the irreversible inhibitor E-64
